{"source": "patent US20080021004A1", "about": "“Sapogenin derivatives and their use in the treatment of cognitive dysfunction” (PHYTOPHARM PLC, priority 1999, published 2008)", "tested_on": "m2 receptors on CHO cells", "assay": "Expression of m2 receptors on transfected CHO cells (tritiated QNB binding)", "type": "cell-based, human", "settings": "DMSO control", "source_text": "Sapogenin derivatives of the present invention have also been tested for activity in a number of in-vitro assays. The assays/experiments that were considered of key importance in determining possible activity in the elevation of membrane bound receptor numbers were as follows: • Chinese hamster ovary (CHO) cells transfected with the DNA fragment coding for a muscarinic receptor. The cell line used for the majority of the experiments was a cell line expressing the m2 receptor.\nThe effects of various compounds on the expression of m2 receptors on CHO cells transfected with DNA for the m2 receptor were investigated. Receptor numbers were assayed using tritiated QNB binding and subtracting non-specific binding. Compounds were dissolved in DMSO and DMSO was used as a control. Compounds were tested at a range of final concentrations. Compounds were also tested in the presence and absence of tamoxifen to try to distinguish an oestrogen receptor mediated mechanism.\nCompounds are active when the effect on receptor expression given as a percentage increase compared to control is more than 15%.", "data": [{"smiles": "CC(CO)CCCC(C)C1C(O)CC2C3CC[C@H]4CC(O)CC[C@]4(C)C3CC[C@@]21C", "note": "(stereo partly shown)", "values": [{"measurement": "Activity (effect on expression of m2 receptors, percentage increase compared to control)", "setting": "molar concentration 10^−5", "value": "Active"}]}, {"smiles": "CC1C(=O)OC2CC3C4CC[C@H]5CC(O)CC[C@]5(C)C4CC[C@]3(C)C21", "note": "(stereo partly shown)", "values": [{"measurement": "Activity (effect on expression of m2 receptors, percentage increase compared to control)", "setting": "molar concentration 10^−5", "value": "Not Active"}]}, {"smiles": "CC1CCC2(OC1)OC1CC3C4CC[C@H]5CC(O)CC[C@]5(C)C4CC[C@]3(C)C1C2C", "note": "(stereo partly shown)", "values": [{"measurement": "Activity (effect on expression of m2 receptors, percentage increase compared to control)", "setting": "molar concentration 10^−5", "value": "Not Active Not Active"}, {"measurement": "Activity (effect on expression of m2 receptors, percentage increase compared to control)", "setting": "molar concentration 10^−6", "value": "Not Active Not Active"}]}, {"smiles": "CC1CCC2(OC1)OC1CC3C4CC[C@@H]5CC(O)[C@H](O)C[C@]5(C)C4CC[C@]3(C)C1C2C", "note": "(stereo partly shown)", "values": [{"measurement": "Activity (effect on expression of m2 receptors, percentage increase compared to control)", "setting": "molar concentration 10^−5", "value": "Not Active"}]}, {"smiles": "CC1CCC2(OC1)OC1CC3C4CC[C@@H]5CC(O)CC[C@]5(C)C4C(=O)C[C@]3(C)C1C2C", "note": "(stereo partly shown)", "values": [{"measurement": "Activity (effect on expression of m2 receptors, percentage increase compared to control)", "setting": "molar concentration 10^−5", "value": "Not Active"}]}, {"smiles": "CC1CCC2(OC1)OC1CC3C4CC=C5CC(O)CC[C@]5(C)C4CC[C@]3(C)C1C2C", "note": "(stereo partly shown)", "values": [{"measurement": "Activity (effect on expression of m2 receptors, percentage increase compared to control)", "setting": "molar concentration 10^−5", "value": "Not Active Not Active"}, {"measurement": "Activity (effect on expression of m2 receptors, percentage increase compared to control)", "setting": "molar concentration 10^−6", "value": "Not Active Not Active"}]}, {"smiles": "CC1CCC2(OC1)OC1CC3C4CC=C5CC(O)C[C@@H](O)[C@]5(C)C4CC[C@]3(C)C1C2C", "note": "(stereo partly shown)", "values": [{"measurement": "Activity (effect on expression of m2 receptors, percentage increase compared to control)", "setting": "molar concentration 10^−5", "value": "Not Active Not Active"}, {"measurement": "Activity (effect on expression of m2 receptors, percentage increase compared to control)", "setting": "molar concentration 10^−6", "value": "Not Active Not Active"}]}]}
